# According to patent EP0549352B1, “Tricyclic compounds as angiotensin II antagonists” (KYOWA HAKKO KOGYO CO., LTD., priority 1991, dated 1993):
# Legend:
# [1] = molecular target: T1, AII receptor (Bos taurus, UniProt P25104); assay: Receptor binding test using bovine adrenal cortex ([125I]AII binding); settings: test compound 0.1 µM; receptor binding of [125I]AII (2.5 × 10^-10M); bovine adrenal cortex membranes; room temperature, 2 hours; read-out: Inhibition Rate (%)
# T1 construct: Tissue of bovine adrenal cortex was finely cut and suspended; from tissue; host or cells: bovine adrenal cortex membrane fraction
# T1 sequence (P25104 1-359): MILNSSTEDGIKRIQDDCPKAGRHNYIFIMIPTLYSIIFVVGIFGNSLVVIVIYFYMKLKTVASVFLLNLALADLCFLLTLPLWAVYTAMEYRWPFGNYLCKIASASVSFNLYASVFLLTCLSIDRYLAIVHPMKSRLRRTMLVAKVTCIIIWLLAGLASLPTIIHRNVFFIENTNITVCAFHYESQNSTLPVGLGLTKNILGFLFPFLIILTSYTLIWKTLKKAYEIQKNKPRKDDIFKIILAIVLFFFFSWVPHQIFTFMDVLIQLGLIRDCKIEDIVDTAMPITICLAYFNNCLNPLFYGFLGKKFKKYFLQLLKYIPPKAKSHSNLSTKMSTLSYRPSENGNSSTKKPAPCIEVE
# Protocol: Receptor binding test using bovine adrenal cortex
# Tissue of bovine adrenal cortex was finely cut and suspended in a 0.25M sucrose solution containing NaHCO3, ethylenediaminetetraacetic acid (EDTA), leupepsin, pepstatin A and phenylmethanesulfonyl fluoride, followed by homogenization. The homogenate was centrifuged at 3,000 rpm for 10 minutes and the supernatant was centrifuged at 9,000 rpm. Then, the supernatant was further centrifuged at 30,000 rpm for 60 minutes and the precipitate was suspended in NaHCO3-EDTA solution, followed by centrifugation at 30,000 rpm for 60 minutes. The resulting precipitate was suspended in a phosphate buffer and the suspension was used for the binding test as an AII receptor source.
# To a test compound or a solvent were added 250 µl of the AII receptor solution prepared above, 250 µl of Tris 50 mM buffer containing 0.2% bovine serum albumin (BSA), and 20 µl of [^125I]AII (2.5 × 10^-10M). The mixture was allowed to stand at room temperature for 2 hours and then filtered through a glass fiber filter (GF/B Wattman). The filter was placed in a test tube and the radioactivity was measured using a gamma-counter.
# The inhibitory activity (inhibition rate) of the test compound (0.1 µM) against the receptor binding of [^125I]AII was calculated by the following equation. Inhibition Rate (%) =(1-((Binding Amount in the Presence of a Test Compound)-(Nonspecific Binding Amount))/((Total Binding Amount)-(Nonspecific Binding Amount)))× 100 [formula]
# The binding amount in the presence of a test compound is the amount of radioactivity of [^125I]AII bound in the presence of a test compound (0.1 µM).
# The total binding amount is the amount of radioactivity of [^125I]AII bound in the absence of a test compound.
# The nonspecific binding amount is the amount of radioactivity of [^125I]AII bound in the presence of 1 µM AII.
# [2] = system: hypertensive response to AII; assay: Inhibition test against hypertensive response to AII; type: in vivo, Male Wistar rats; settings: test compound 1 mg/kg orally; 0.3 µg/kg AII intravenously one hour after dosing; average artery blood pressure
# Protocol: Inhibition test against hypertensive response to AII
# Male Wistar rats were anesthetized with pentobarbital. A cannula for blood pressure measurement was inserted from the right femoral artery into the abdominal aorta and another cannula for AII injection was inserted into the right femoral vein. The cannulae were passed under skin and fixed after coming out of the back, and the blood pressure was recorded on a polygraph from the artery cannula using a voltage transformer.
# On the day after operation, 0.3 µg/kg AII was intravenously injected into each animal and the change in the average artery blood pressure was examined as the control pressor response. Then, a test compound (1 mg/kg) was orally administered and after one hour, 0.3 µg/kg AII was injected again, followed by examination of the pressor response. The inhibitory effect of the test compound against the control pressor response was determined as the inhibition rate.
structure (smiles),measurement,setting,value
"CCc1nc2c(C)cc(C)nc2n1Cc1ccc2c(c1)CCc1ccccc1N2Cc1nnn[nH]1 [Compound 32, 2-(5,7-Dimethyl-2-ethyl-3H-imidazo[4,5-b]pyridin-3-yl)methyl-5-(1H-tetrazol-5-yl)methyl-5H-10,11-dihydrodibenz[b,f]azepine]",inhibition at 0.1 µM,[1],86%
same,inhibition rate against the control pressor response,[2],45%
